Assay results published in patent US11479551B2, “MTA-cooperative PRMT5 inhibitors” (Mirati Therapeutics, Inc., priority 2019, dated 2022).
Read-outs that look alike come from different tables or passages of the source.

Experiments:
[1] = test system: PRMT5-dependent Symmetric Di-methyl Arginine signal in HCT116 parental cells; assay: SYM11 In-Cell Western, HCT116 parental; type: cell-based; conditions: 4 days of treatment, SYM11/DRAQ5 ratio
Method: (§1) Control samples were analyzed in parallel.
Briefly, on Day 0, 2,000 HCT116 parental or HCT116 homozygous MTAP knockout cells were seeded in 96 well plates in McCoy's 5A supplemented with 10% fetal bovine serum and pen/strep and the cells were incubated overnight at 37° C. plus 5% CO2. The following day, cells were treated with DMSO vehicle control or a dose response of PRMT5 inhibitors, and incubated at 37° C. plus 5% CO^2 for four days.
After 4 days of treatment, the cells were fixed by adding 50 μl of 4% paraformaldehyde solution to each well and the cells were incubated for 20 min at room temperature. The paraformaldehyde solution was removed, 150 μl of ice-cold methanol was added and the plate was placed −20° C. for 10 minutes. The methanol was removed, 150 μl of Odyssey Blocking buffer+0.05% Tween20 was added and the plate was incubated at room temperature with shaking for one hour.
The primary SYM11 antibody solution was removed by aspiration and the wells were washed three consecutive times with phosphate buffered saline containing 0.1% Tween-20 (PBST).
The secondary antibody solution was removed by aspiration and the wells were washed three consecutive times with PB ST.
The SYM11 signal and the DRAQ5 signal were quantified using a Li-Cor Odyssey machine reading at […], respectively. The SYM11/DRAQ5 ratio was used to calculate the inhibition of Symmetric Dimethyl Arginine as percent of DMSO control.

HCT116 parental cells = assay: Proliferation assay (CellTiter-Glo, 10 days of treatment), HCT116 parental; type: cell-based
Method: as §1
Briefly, on Day 0, 250 HCT116 parental or HCT116 homozygous MTAP knockout cell were seeded in 96 well plates in McCoy's 5A supplemented with 10% fetal bovine serum and pen/strep and the cells were incubated overnight at 37° C. plus 5% CO2.
The following day, cells were treated with DMSO vehicle control or a dose response of PRMT5 inhibitors and incubated at 37 C plus 5% CO2 for five days. On Day 6, the cells were trypsinized and split 1:10 into new 96-well plates with fresh medium containing the same concentration of PRMT5 inhibitor and incubated for an additional 5 days at 37° C. plus 5% CO^2.
On Day 11, the viability of the cells was measured using a CTG assay kit (CellTiter-Glo; Promega cat.no G7573) in accordance with the manufacturer's instructions. The IC50 values for each compound after 10 days of treatment were calculated using GraphPad PRISM software.

[2] = test system: PRMT5-dependent Symmetric Di-methyl Arginine signal in HCT116 homozygous MTAP knockout cells; assay: SYM11 In-Cell Western, HCT116 MTAP knockout; type: cell-based
[3] = test system: HCT116 homozygous MTAP knockout cells; assay: Proliferation assay (CellTiter-Glo, 10 days of treatment), HCT116 MTAP knockout; type: cell-based; conditions: read-out: Proliferation HCT116MTAP_KO IC50
How it was run: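 Cells (250/well) seeded in McCoy's 5A with 10% FBS, then treated the next day with a PRMT5 inhibitor dose response at 37 °C, 5% CO2. On day 6 they were split 1:10 into fresh medium with the same compound concentration. CellTiter-Glo viability was read on day 11 and IC50 taken after 10 days of treatment.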

PRMT5/MEP50 complex = PRMT5/MEP50 complex (Homo sapiens (Human), UniProt O14744); assay: PRMT5:MEP50 HotSpot Assay (full-length histone H2A substrate, plus and minus MTA); type: biochemical; conditions: in the presence of 2 μM MTA
Sequence of PRMT5/MEP50 complex (O14744 2-637): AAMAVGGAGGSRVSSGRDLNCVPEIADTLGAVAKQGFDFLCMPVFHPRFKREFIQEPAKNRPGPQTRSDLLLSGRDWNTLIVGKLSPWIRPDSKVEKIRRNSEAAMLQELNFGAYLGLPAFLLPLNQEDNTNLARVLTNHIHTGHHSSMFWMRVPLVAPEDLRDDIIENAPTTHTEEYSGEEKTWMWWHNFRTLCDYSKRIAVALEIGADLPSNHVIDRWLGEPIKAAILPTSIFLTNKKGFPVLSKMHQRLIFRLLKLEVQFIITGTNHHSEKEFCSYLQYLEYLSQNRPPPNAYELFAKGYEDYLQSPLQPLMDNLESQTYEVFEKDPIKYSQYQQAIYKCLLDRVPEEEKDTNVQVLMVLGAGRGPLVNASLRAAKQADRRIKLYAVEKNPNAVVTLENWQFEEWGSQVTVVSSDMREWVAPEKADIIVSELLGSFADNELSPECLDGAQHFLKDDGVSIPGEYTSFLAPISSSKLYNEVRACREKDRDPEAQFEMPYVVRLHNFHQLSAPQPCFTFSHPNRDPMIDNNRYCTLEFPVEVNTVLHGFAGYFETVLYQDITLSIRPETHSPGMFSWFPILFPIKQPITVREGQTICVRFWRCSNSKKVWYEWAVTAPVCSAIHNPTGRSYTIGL
Sequence of PRMT5/MEP50 complex (Q9BQA1 2-342 partner): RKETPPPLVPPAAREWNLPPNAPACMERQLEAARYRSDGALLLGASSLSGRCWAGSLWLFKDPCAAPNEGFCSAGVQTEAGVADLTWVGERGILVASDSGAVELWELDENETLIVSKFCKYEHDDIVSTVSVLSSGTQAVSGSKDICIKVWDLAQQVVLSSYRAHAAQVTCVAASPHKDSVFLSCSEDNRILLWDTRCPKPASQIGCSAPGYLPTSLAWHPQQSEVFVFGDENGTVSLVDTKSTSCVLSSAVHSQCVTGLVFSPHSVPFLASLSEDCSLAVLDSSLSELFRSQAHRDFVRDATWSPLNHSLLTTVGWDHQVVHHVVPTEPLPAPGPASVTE
How it was run: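 Radiometric filter-binding format using recombinant full-length histone H2A as substrate. After the reaction was stopped, mixtures went onto filter paper and tritiated H2A was quantified by scintillation counting.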

[4] = HCT116 homozygous MTAP knockout cells, 4 days of treatment, SYM11/DRAQ5 ratio, read-out: In-cell-Western (SYM11) HCT116 MTAP_KO IC50
[5] = Homo sapiens, HCT-116, 96 h, HCT116 homozygous MTAP knockout cells, 4 days of treatment, SYM11/DRAQ5 ratio, read-out: In-cell-Western (SYM11) HCT116 MTAP_KO IC50

IC50 [2, 4] [µM]	IC50 [3] [µM]	IC50 (PRMT5/MEP50 complex; read-out: IC50 + 2 μM MTA) [µM]	IC50 (PRMT5/MEP50 complex; IC50 + 2 μM MTA) [µM]	IC50 [2, 5] [µM]	IC50 ([3]; Homo sapiens, HCT-116, 240 h) [µM]	Compound	IC50 ([1]; Homo sapiens, HCT-116, 96 h) [µM]	IC50 (HCT116 parental cells; Homo sapiens, HCT-116, 240 h) [µM]	IC50 [1] [µM]	IC50 (HCT116 parental cells) [µM]	IC50 ([2]; Homo sapiens, HCT-116, 96 h, read-out: In-cell-Western (SYM11) HCT116 MTAP_KO IC50, HCT116 homozygous MTAP knockout cells, 4 days of treatment, SYM11/DRAQ5 ratio) [µM]
0.002		0.038				Cn1ncc(-c2ccc3c(=O)[nH]nc(CN)c3c2)c1-c1c(F)cc2ccccc2c1C#N (single isomer, unassigned) [Example 16-1]			0.316	0.757	
			0.276	0.002	0.12	CCc1c(Cl)ccc(-c2c(-c3ccc4c(=O)[nH]nc(CN)c4c3)cnn2C)c1C#N [Example 4-199, 6-(4-(4-(aminomethyl)-1-oxo-1,2-dihydrophthalazin-6-yl)-1-methyl-1H-pyrazol-5-yl)-3-chloro-2-ethylbenzonitrile]		8.85			
				0.012	0.052	COc1cccc2c(C#N)c(-c3c(-c4ccc5c(=O)[nH]nc(CN)c5c4)cnn3C)ccc12 [Example 4-204, 2-(4-(4-(aminomethyl)-1-oxo-1,2-dihydrophthalazin-6-yl)-1-methyl-1H-pyrazol-5-yl)-5-methoxy-1-naphthonitrile]	> 1	1.83			
				0.01	0.059	Cn1ncc(-c2ccc3c(=O)[nH]nc(CN)c3c2)c1-c1cc(C(F)(F)F)cc(OC2CC2)c1C#N [Example 4-209, 2-(4-(4-(aminomethyl)-1-oxo-1,2-dihydrophthalazin-6-yl)-1-methyl-1H-pyrazol-5-yl)-6-cyclopropoxy-4-(trifluoromethyl)benzonitrile]	> 1	4.67			
				0.008	0.416	Cn1ncc(-c2ccc3c(=O)[nH]nc(CN)c3c2)c1-c1cc(C#N)c2ccccc2c1F [Example 4-210, 3-(4-(4-(aminomethyl)-1-oxo-1,2-dihydrophthalazin-6-yl)-1-methyl-1H-pyrazol-5-yl)-4-fluoro-1-naphthonitrile]	> 1	1.36			
				0.034	0.081	Cn1ncc(-c2ccc3c(=O)[nH]nc(CN)c3c2)c1-c1c(Cl)cc2ccccc2c1C#N [Example 4-215, 2-(4-(4-(aminomethyl)-1-oxo-1,2-dihydrophthalazin-6-yl)-1-methyl-1H-pyrazol-5-yl)-3-chloro-1-naphthonitrile]	> 1	3.54			
				0.017	0.084	Cn1ncc(-c2ccc3c(=O)[nH]nc(CN)c3c2)c1-c1ccc2ncc(Cl)cc2c1C#N [Example 4-225, 6-[4-[4-(aminomethyl)-1-oxo-2H-phthalazin-6-yl]-2-methyl-pyrazol-3-yl]-3-chloro-quinoline-5-carbonitrile]	> 1	5.17			

The next lines start with the molecule.

Compound	IC50 [2, 4] [µM]	IC50 [3] [µM]	IC50 (PRMT5/MEP50 complex; read-out: IC50 + 2 μM MTA) [µM]	IC50 (PRMT5/MEP50 complex; IC50 + 2 μM MTA) [µM]	IC50 [2, 5] [µM]	IC50 ([3]; Homo sapiens, HCT-116, 240 h) [µM]	IC50 ([1]; Homo sapiens, HCT-116, 96 h) [µM]	IC50 (HCT116 parental cells; Homo sapiens, HCT-116, 240 h) [µM]	IC50 [1] [µM]	IC50 (HCT116 parental cells) [µM]	IC50 ([2]; Homo sapiens, HCT-116, 96 h, read-out: In-cell-Western (SYM11) HCT116 MTAP_KO IC50, HCT116 homozygous MTAP knockout cells, 4 days of treatment, SYM11/DRAQ5 ratio) [µM]
CC(N)c1n[nH]c(=O)c2ccc(-c3cnn(C)c3-c3ccc4ccccc4c3C#N)cc12 (single isomer, unassigned) [Example 9-5, 2-[4-[4-(1-aminoethyl)-1-oxo-2H-phthalazin-6-yl]-2-methyl-pyrazol-3-yl]naphthalene-1-carbonitrile]	0.042	0.125					> 1	6.44			
CCc1c(OC)ccc(-c2c(-c3ccc4c(=O)[nH]nc(CN)c4c3)cnn2C)c1C#N [Example 4-201, 2-(4-(4-(aminomethyl)-1-oxo-1,2-dihydrophthalazin-6-yl)-1-methyl-1H-pyrazol-5-yl)-6-ethyl-5-methoxybenzonitrile]				0.948	0.016	0.155		> 10			
Cn1ncc(-c2ccc3c(=O)[nH]nc(CN)c3c2)c1-c1c(F)cc2ccccc2c1C#N [Example 4-203, 2-(4-(4-(aminomethyl)-1-oxo-1,2-dihydrophthalazin-6-yl)-1-methyl-1H-pyrazol-5-yl)-3-fluoro-1-naphthonitrile]					0.002	0.019	0.903	1.21			
Cn1ncc(-c2ccc3c(=O)[nH]nc(CN)c3c2)c1-c1ccc2ccc(F)cc2c1C#N [Example 4-217, 2-(4-(4-(aminomethyl)-1-oxo-1,2-dihydrophthalazin-6-yl)-1-methyl-1H-pyrazol-5-yl)-7-fluoro-1-naphthonitrile]					0.087	0.096	> 1	2.15			
Cn1ncc(-c2ccc3c(=O)[nH]nc(CN)c3c2)c1-c1ccc2c(F)cccc2c1C#N [Example 4-223, 2-(4-(4-(aminomethyl)-1-oxo-1,2-dihydrophthalazin-6-yl)-1-methyl-1H-pyrazol-5-yl)-5-fluoro-1-naphthonitrile]					0.012	0.075	0.756	7.81			
Cn1ncc(-c2ccc3c(=O)[nH]nc(CN)c3c2)c1-c1cc(F)c2ccccc2c1C#N [Example 4-224, 2-(4-(4-(aminomethyl)-1-oxo-1,2-dihydrophthalazin-6-yl)-1-methyl-1H-pyrazol-5-yl)-4-fluoro-1-naphthonitrile]					0.01	0.416	> 1	7.81			
Cn1ncc(-c2ccc3c(=O)[nH]nc(CN)c3c2)c1-c1c(C#N)cc2ccccc2c1Cl [Example 4-229, 3-(4-(4-(aminomethyl)-1-oxo-1,2-dihydrophthalazin-6-yl)-1-methyl-1H-pyrazol-5-yl)-4-chloro-2-naphthonitrile]					0.011	0.059	> 1	2.86			
Cn1ncc(-c2ccc3c(=O)[nH]nc(CN)c3c2)c1-c1c(F)c(Cl)cc(OC2CC2)c1C#N [Example 4-230, 2-(4-(4-(aminomethyl)-1-oxo-1,2-dihydrophthalazin-6-yl)-1-methyl-1H-pyrazol-5-yl)-4-chloro-6-cyclopropoxy-3-fluorobenzonitrile]							> 1	1.89			0.006
Cn1ncc(-c2ccc3c(=O)[nH]nc(CN)c3c2)c1-c1cc2ccccc2c(OC2CC2)c1C#N [Example 4-231, 3-(4-(4-(aminomethyl)-1-oxo-1,2-dihydrophthalazin-6-yl)-1-methyl-1H-pyrazol-5-yl)-1-cyclopropoxy-2-naphthonitrile]					0.037	0.05	> 1	3.12			
Cc1cc(OC2CC2)c(C#N)c(-c2c(-c3ccc4c(=O)[nH]nc(CN)c4c3)cnn2C)c1F [Example 4-241, 2-(4-(4-(aminomethyl)-1-oxo-1,2-dihydrophthalazin-6-yl)-1-methyl-1H-pyrazol-5-yl)-6-cyclopropoxy-3-fluoro-4-methylbenzonitrile]					0.014	0.051	> 1	2.4			
CCOc1cccc(-c2c(-c3cc(C)c4c(=O)[nH]nc(CN)c4c3)cnn2C)c1C#N [Example 10-9, 2-(4-(4-(aminomethyl)-8-methyl-1-oxo-1,2-dihydrophthalazin-6-yl)-1-methyl-1H-pyrazol-5-yl)-6-ethoxybenzonitrile]				1.93	0.008	0.489		9.82			
Cn1ncc(-c2cc(Cl)c3c(=O)[nH]nc(CN)c3c2)c1-c1cc(Cl)cc(OC2CC2)c1C#N [Example 10-16, 2-(4-(4-(aminomethyl)-8-chloro-1-oxo-1,2-dihydrophthalazin-6-yl)-1-methyl-1H-pyrazol-5-yl)-4-chloro-6-cyclopropoxybenzonitrile]					0.048	0.086	0.086	1.76			
